Experimental data from US7888329B2, “Substituted aryl piperidinylalkynyladenosines as A2AR agonists” (PGxHealth, LLC, priority 2006, dated 2011).

Legend:
[1] = molecular target: T1, human A1 AR (Homo sapiens, UniProt P30542); assay: Radioligand competition binding with 125I-ABA, membranes of CHO K1 cells stably expressing the receptor; conditions: Ki derived from IC50, class symbols
T1 construct: expressed in transfected cells; membranes
T1 sequence (P30542 1-326): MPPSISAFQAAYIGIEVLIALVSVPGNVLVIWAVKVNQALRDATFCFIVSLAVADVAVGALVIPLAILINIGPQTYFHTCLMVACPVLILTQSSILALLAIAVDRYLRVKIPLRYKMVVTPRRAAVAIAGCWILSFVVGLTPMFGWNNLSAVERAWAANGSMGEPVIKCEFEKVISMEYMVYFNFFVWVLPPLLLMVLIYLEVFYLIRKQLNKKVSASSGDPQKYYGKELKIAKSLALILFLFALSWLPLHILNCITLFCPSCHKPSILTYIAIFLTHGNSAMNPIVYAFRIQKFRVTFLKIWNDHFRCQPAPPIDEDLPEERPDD

[2] = molecular target: T2, recombinant human A2A receptors (Homo sapiens, UniProt P29274); assay: Radioligand competition binding with 125I-APE or 125I-ZM241385, Sf9 cell membranes; conditions: 125I-APE or 125I-ZM241385, Sf9 membranes; class symbols
T2 construct: expressed in transfected cells; host or cells: Sf9 insect cells infected with virus; membranes
Procedure: Cell culture and membrane preparation. Sf9 cells were cultured in Grace's medium supplemented with 10% fetal bovine serum, 2.5 μg/ml amphotericin B and 50 μg/ml gentamycin in an atmosphere of 50% N2/50% O2. Viral infection was performed at a density of 2.5×10^6 cells/mL with a multiplicity of infection of two for each virus used. Infected cells were harvested 3 days post-infection and washed twice in insect PBS (PBS pH 6.3). Cells were then resuspended in lysis buffer (20 mM HEPES pH 7.5, 150 mM NaCl, 3 mM MgCl2, 1 mM α-mercaptoethanol (BME), 5 μg/mL leupeptin, 5 μg/mL pepstatin A, 1 μg/mL aprotinin, and 0.1 mM PMSF) and snap frozen for storage at −80° C. Cells were thawed on ice, brought to 30 mL total volume in lysis buffer, and burst by N2 cavitation (600 psi for 20 minutes). A low-speed centrifugation was performed to remove any unlysed cells (1000×g for 10 minutes), followed by a high-speed centrifugation (17,000×g for 30 minutes). The pellet from the final centrifugation was homogenized in buffer containing 20 mM HEPES pH 8, 1100 mM NaCl, 1% glycerol, 2 μg/mL leupeptin, 2 μg/mL pepstatin A, 2 μg/mL Aprotinin, 0.1 mM PMSF, and 10 μM GDP using a small glass homogenizer followed by passage through a 26 gauge needle. Membranes were aliquoted, snap frozen in liquid N2, and stored at −80° C.
Radioligand Binding Assays. […] Binding experiments were performed in triplicate with 5 μg (A2A) or 25 μg (A1 and A3) membrane protein in a total volume of 00.1 mL HE buffer (20 mM HEPES and 1 mM EDTA) with 1 U/mL adenosine deaminase and 5 mM MgCl2 with or without 50 μM GTPγS. Membranes were incubated with radioligands at room temperature for three hours (for agonists) or two hours (for antagonists) in Millipore Multiscreen® 96-well GF/C filter plates and assays were terminated by rapid filtration on a cell harvester (Brandel, Gaithersburg, Md.) followed by 4×150 μl washes over 30 seconds with ice cold 10 mM Tris-HCl, pH 7.4, 10 mM MgCl2. Nonspecific binding was measured in the presence of 50 μM NECA.

[3] = molecular target: T3, human A3 AR (Homo sapiens, UniProt P0DMS8); assay: Radioligand competition binding with 125I-ABA, membranes of HEK 293 cells stably expressing the receptor; conditions: Ki derived from IC50, class symbols
T3 construct: expressed in transfected cells; membranes
T3 sequence (P0DMS8 1-318): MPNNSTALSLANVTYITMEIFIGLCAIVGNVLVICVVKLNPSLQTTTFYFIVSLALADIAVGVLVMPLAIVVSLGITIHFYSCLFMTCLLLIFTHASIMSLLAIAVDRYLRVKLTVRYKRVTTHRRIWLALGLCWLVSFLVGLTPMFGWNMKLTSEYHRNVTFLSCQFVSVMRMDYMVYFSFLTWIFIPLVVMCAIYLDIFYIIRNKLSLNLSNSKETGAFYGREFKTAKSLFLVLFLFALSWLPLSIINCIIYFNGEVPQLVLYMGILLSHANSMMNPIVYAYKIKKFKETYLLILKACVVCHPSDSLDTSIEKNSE
Procedure: Cell culture and membrane preparation. Sf9 cells were cultured in Grace's medium supplemented with 10% fetal bovine serum, 2.5 μg/ml amphotericin B and 50 μg/ml gentamycin in an atmosphere of 50% N2/50% O2. Viral infection was performed at a density of 2.5×10^6 cells/mL with a multiplicity of infection of two for each virus used. Infected cells were harvested 3 days post-infection and washed twice in insect PBS (PBS pH 6.3). Cells were then resuspended in lysis buffer (20 mM HEPES pH 7.5, 150 mM NaCl, 3 mM MgCl2, 1 mM α-mercaptoethanol (BME), 5 μg/mL leupeptin, 5 μg/mL pepstatin A, 1 μg/mL aprotinin, and 0.1 mM PMSF) and snap frozen for storage at −80° C. Cells were thawed on ice, brought to 30 mL total volume in lysis buffer, and burst by N2 cavitation (600 psi for 20 minutes). A low-speed centrifugation was performed to remove any unlysed cells (1000×g for 10 minutes), followed by a high-speed centrifugation (17,000×g for 30 minutes). The pellet from the final centrifugation was homogenized in buffer containing 20 mM HEPES pH 8, 1100 mM NaCl, 1% glycerol, 2 μg/mL leupeptin, 2 μg/mL pepstatin A, 2 μg/mL Aprotinin, 0.1 mM PMSF, and 10 μM GDP using a small glass homogenizer followed by passage through a 26 gauge needle. Membranes were aliquoted, snap frozen in liquid N2, and stored at −80° C. Membranes from cells stably expressing the human A1 AR (CHO K1 cells) or A3 AR (HEK 293 cells) were prepared as described (Robeva et al., 1996).
Radioligand Binding Assays. Radioligand binding to recombinant human A2A receptors in Sf9 cell membranes was performed using either the radiolabeled agonist, ^125I-APE (Luthin et al., 1995) or the radiolabeled antagonist, ^125I-ZM241385 (^125I-ZM). To detect the high affinity, GTPγS-sensitive state of A1 and A3 AR, we used the agonist, ^125I-ABA (Linden et al., 1985; Linden et al., 1993). Binding experiments were performed in triplicate with 5 μg (A2A) or 25 μg (A1 and A3) membrane protein in a total volume of 00.1 mL HE buffer (20 mM HEPES and 1 mM EDTA) with 1 U/mL adenosine deaminase and 5 mM MgCl2 with or without 50 μM GTPγS. Membranes were incubated with radioligands at room temperature for three hours (for agonists) or two hours (for antagonists) in Millipore Multiscreen® 96-well GF/C filter plates and assays were terminated by rapid filtration on a cell harvester (Brandel, Gaithersburg, Md.) followed by 4×150 μl washes over 30 seconds with ice cold 10 mM Tris-HCl, pH 7.4, 10 mM MgCl2. Nonspecific binding was measured in the presence of 50 μM NECA. Competition binding assays were performed as described (Robeva et al., 1996) using 0.5-1 nM ^125I-APE, ^125I-ZM241385, or ^125I-ABA. […] The Ki values for competing compound binding to a single site were derived from IC50 values with correction for radioligand and competing compound depletion as described previously (Linden, 1982).

[4] = test system: Purified human neutrophils; assay: Luminol enhanced chemiluminescence (neutrophil oxidative activity), fMLP stimulated; type: cell-based; conditions: Homo sapiens, Neutrophil; read-out: Functional
Description: Chemiluminescence Methods: Luminol enhanced chemiluminescence, a measure of neutrophil oxidative activity, is dependent upon both superoxide production and mobilization of the granule enzyme myeloperoxidase. The light is emitted from unstable high-energy oxygen species such as hypochlorous acid and singlet oxygen generated by activated neutrophils.
Purified human neutrophils (2×10^6/ml) suspended in Hanks balanced salt solution containing 0.1% human serum albumin (HA), adenosine deaminase (1 U/mL) and rolipram (100 nM) were incubated (37 C) in a water bath for 15 min with or without rhTNF (10 U/ml). Following incubation 100 µL aliquots of the PMN were transferred to wells (White walled clear bottom 96 well tissue culture plates Costar #3670; 2 wells/condition) containing […] and luminol (final concentration 100M) with or without adenosine agonist (final agonist concentrations 0.01-1000 nM). The plate was incubated 5 min (37 C) and then fMLP (50 l in HA; final concentration […]) was added to all wells.
Peak chemiluminescence was determined with a Victor 1420 Multilabel Counter in the chemiluminescence mode using the Wallac Workstation software. Data are presented as peak chemiluminescence as percent of activity in the absence of an adenosine agonist. The EC50 was determined using PRISM software. All compounds were tested with PMNs from three separate donors.

T2 sequence (P29274 whole entry): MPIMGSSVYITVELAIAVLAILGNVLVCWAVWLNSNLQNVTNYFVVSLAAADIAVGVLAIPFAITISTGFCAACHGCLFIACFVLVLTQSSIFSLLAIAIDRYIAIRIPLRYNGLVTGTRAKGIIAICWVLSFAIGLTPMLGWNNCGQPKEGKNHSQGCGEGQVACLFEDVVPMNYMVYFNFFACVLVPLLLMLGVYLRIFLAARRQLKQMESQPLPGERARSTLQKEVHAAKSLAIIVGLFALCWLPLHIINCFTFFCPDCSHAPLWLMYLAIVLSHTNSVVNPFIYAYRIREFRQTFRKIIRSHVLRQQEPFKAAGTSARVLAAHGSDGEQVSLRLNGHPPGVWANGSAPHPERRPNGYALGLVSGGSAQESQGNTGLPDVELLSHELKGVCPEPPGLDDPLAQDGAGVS

Row | SMILES | Ki [1] [nM] | Ki [2] [nM] | Ki [3] [nM] | EC50 [4] [nM]
1 | Nc1nc(C#CCC2CCN(C(=O)Oc3ccc(F)cc3)CC2)nc2c1ncn2[C@@H]1O[C@H](CO)[C@@H](O)[C@H]1O [Compound 11, 2-{3-[1-((4-Fluorophenoxy)carbonyl)piperidin-4-yl]propyn-1-yl}adenosine] | < 100 | < 1 | < 100 | < 10
2 | Nc1nc(C#CCC2CCN(C(=O)Oc3ccc([N+](=O)[O-])cc3)CC2)nc2c1ncn2[C@@H]1O[C@H](CO)[C@@H](O)[C@H]1O [Compound 12, 2-{3-[1-((4-Nitrophenoxy)carbonyl)piperidin-4-yl]propyn-1-yl}adenosine] | < 100 | < 1 | < 100 | < 1
3 | COC(=O)c1ccc(OC(=O)N2CCC(CC#Cc3nc(N)c4ncn([C@@H]5O[C@H](CO)[C@@H](O)[C@H]5O)c4n3)CC2)cc1 [Compound 13, 2-{3-[1-((4-Methoxycarbonylphenoxy)carbonyl)piperidin-4-yl]propyn-1-yl}adenosine] | < 100 | < 1 | < 100 | < 10
4 | Nc1nc(C#CCC2CCN(C(=O)Oc3ccc(C(=O)O)cc3)CC2)nc2c1ncn2[C@@H]1O[C@H](C(=O)NC2CC2)C(O)[C@@H]1O (stereo partly shown) [Compound 14, N-Cyclopropyl 2-{3-[1-(4-carboxyphenoxycarbonyl)-4-piperidinyl]-1-propyn-1-yl}adenosine-5′-uronamide] | > 100 | < 10 | > 100 | < 100
5 | CCNC(=O)[C@H]1O[C@@H](n2cnc3c(N)nc(C#CCC4CCN(C(=O)Oc5ccc(OC)cc5)CC4)nc32)[C@@H](O)C1O (stereo partly shown) [Compound 15, N-Ethyl 2-{3-[1-(4-methoxyphenoxycarbonyl)-4-piperidinyl]-1-propyn-1-yl}adenosine-5′-uronamide] | < 100 | < 1 | < 10 | < 1
6 | CCNC(=O)[C@H]1O[C@@H](n2cnc3c(N)nc(C#CCC4CCN(C(=O)Oc5ccc(C)cc5)CC4)nc32)[C@@H](O)C1O (stereo partly shown) [Compound 16, N-Ethyl 2-{3-[1-(4-methylphenoxycarbonyl)-4-piperidinyl]-1-propyn-1-yl}adenosine-5′-uronamide] | < 100 | < 1 | < 10 | < 1
7 | Nc1nc(C#CCC2CCN(C(=O)Oc3ccc(Cl)cc3)CC2)nc2c1ncn2[C@@H]1O[C@H](C(=O)NC2CC2)C(O)[C@@H]1O (stereo partly shown) [Compound 17, N-Cyclopropyl 2-{3-[1-(4-chlorophenoxycarbonyl)-4-piperidinyl]-1-propyn-1-yl}adenosine-5′-uronamide] | < 100 | < 1 | < 100 | < 1
8 | Nc1nc(C#CCC2CCN(C(=O)OCc3ccc([N+](=O)[O-])cc3)CC2)nc2c1ncn2[C@@H]1O[C@H](C(=O)NC2CC2)C(O)[C@@H]1O (stereo partly shown) [Compound 18, N-Cyclopropyl 2-{3-[1-(4-nitrobenzloxycarbonyl)-4-piperidinyl]-1-propyn-1-yl}adenosine-5′-uronamide] | < 100 | < 1 | < 100 | < 1
9 | CCNC(=O)[C@H]1O[C@@H](n2cnc3c(N)nc(C#CCC4CCN(C(=O)Oc5ccc([N+](=O)[O-])cc5)CC4)nc32)[C@@H](O)C1O (stereo partly shown) [Compound 19, N-Ethyl 2-{3-[1-(4-nitrophenyloxycarbonyl)-4-piperidinyl]-1-propyn-1-yl}adenosine-5′-uronamide] | < 100 | < 1 | < 10 | < 1
10 | Cc1ccc(OC(=O)N2CCC(CC#Cc3nc(N)c4ncn([C@@H]5O[C@H](C(=O)NC6CC6)C(O)[C@@H]5O)c4n3)CC2)cc1 (stereo partly shown) [Compound 20, N-Cyclopropyl 2-{3-[1-(4-methylphenyloxycarbonyl)-4-piperidinyl]-1-propyn-1-yl}adenosine-5′-uronamide] | < 100 | < 1 | > 100 | < 1
